Measured values taken from US10315996B2, “ROR gamma (RORγ) modulators” (LEAD PHARMA HOLDING B.V., priority 2015, dated 2019).

Molecular target: T1, RORγ (Homo sapiens, UniProt P51449)
T1 construct: expressed in transfected cells; host or cells: 293FT cells (Invitrogen), expression vector pFN26A (Promega)
T1 sequence (P51449 269-508 limits assumed): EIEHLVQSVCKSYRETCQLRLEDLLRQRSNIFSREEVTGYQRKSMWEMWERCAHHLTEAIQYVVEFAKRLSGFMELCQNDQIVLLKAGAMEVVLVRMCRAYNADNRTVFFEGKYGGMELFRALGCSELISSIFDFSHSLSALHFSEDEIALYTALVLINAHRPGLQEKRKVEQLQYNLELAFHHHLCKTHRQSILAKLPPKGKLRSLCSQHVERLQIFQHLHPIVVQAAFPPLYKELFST
Assay: RORγ GAL4 reporter gene assay
Assay type: cell-based
Conditions: inhibition of RORγ activity, GAL4-RORγ-LBD luciferase reporter in 293FT cells, overnight incubation; read-out: mean pIC50 (converted)
Method: Example inhibitors 1-166 were tested for their ability to inhibit RORγ activity in a RORγ GAL4 reporter gene assay. The assay procedure and results are described below.
RORγ GAL4 Reporter Gene Assay Description
A GAL4 one-hybrid reporter system employing luciferase readout was established to determine inhibition of RORγ in 293FT cells. The RORγ ligand-binding domain (LBD) was fused to the yeast GAL4 DNA binding domain (DBD) and placed under the control of the human cytomegalovirus (CMV) immediate early promoter, using expression vector pFN26A (Promega) and standard recombinant DNA cloning methods. To serve as a control in the assay, a similar vector was generated in which the GAL4-DBD was fused to Herpes simplex virus protein 16 (VP16), a constitutive transcriptional activator.
To monitor the inhibitory effect of compounds on RORγ, a transcriptional reporter construct was used. The pGL4.35 vector (Promega) contains nine copies of the GAL4 Upstream Activator Sequence (UAS). This sequence drives the transcription of the luciferase reporter gene luc2P in response to binding of a fusion protein containing the GAL4 DNA binding domain, as for example expressed by the GAL4-RORγ-LBD and GAL4-VP16 expression vectors described above. To allow a GAL4 fusion protein to drive the expression of the luciferase reporter, the pGL4.35 expression vector and the appropriate GAL4 fusion protein expression vector were bulk transfected in the 293FT cells using standard transfection techniques.
The day after transfection, cells were plated into 96 well plates, test compound was added and the plates were incubated overnight. Subsequently, the firefly luciferase activity was quantified using luciferase detection reagent and luminescence readout.
Detailed Assay Description
293FT cells (Invitrogen) were transfected with a GAL4 fusion protein expression vector (as described above) and the transcriptional reporter construct (pGL4.35, Promega). 60 μL of TransIT-293 transfection reagent (Mirus Bio) was added drop wise to 1500 μl Opti-MEM I Reduced Serum Medium (Invitrogen) and incubated at room temperature (RT) for 5 to 20 minutes. 1500 μL of this reagent mixture was added to 5 μg of GAL4 fusion protein expression vector and 5 μg of the transcriptional reporter construct, and incubated at RT for 20 minutes.
To harvest 293FT cells from a T75 flask, first the culture medium was taken off the cells. Subsequently, the cells were washed with Phosphate Buffered Saline (PBS) (Lonza), after which the PBS was removed. To dissociate the cells, 1 ml of TrypLE Express (Invitrogen) was added to the flask, followed by incubation at RT until the cells visually started to detach. Cells were collected in 5 mL of assay medium (DMEM culture medium (Lonza), 10% dialyzed FBS (Invitrogen) and Pen/Strep (Lonza)) to achieve a single cell suspension. 10×10^6 cells were spun down and re-suspended in 10 mL of assay medium. Subsequently, the cell suspension was added to the transfection mix tube, and then transferred as a whole to a T75 flask (Greiner), followed by overnight (16-24 hours) incubation at 37° C. and 5% CO2.
For compound screening, the cells were harvested (as described above) and counted. 13×10^6 cells were spun down, the supernatant was aspirated and the cells were re-suspended in 17.3 mL of assay medium obtaining a cell suspension of 0.75×10^6 cells/mL. 80 μL of cell suspension (60,000 cells) was plated per well into a white, flat bottom, tissue culture treated, 96 well screening plates (Greiner).
Test compounds were diluted, starting from a 10 mM dimethylsulfoxide (DMSO) stock solution, to serial dilutions in DMSO at 500× the final test concentration. Subsequently, these solutions were diluted to 5× the final test concentration in two 10-fold-dilution steps in assay medium. The final DMSO concentration of the 5× test compound solution was 1%. […]

SMILES: CCN(C(=O)c1ccc(NC(=O)Cc2ccc(S(=O)(=O)NC3CC3)cc2)cc1Cl)c1ccccc1 [Example 112, 2-chloro-4-{2-[4-(cyclopropylsulfamoyl)phenyl]acetamido}-N-ethyl-N-phenylbenzamide]
- IC50: ≤ 1000 nM

SMILES: CC(N(C(=O)c1ccc(NC(=O)Cc2ccc(S(=O)(=O)CC3CC3)cc2)cc1)c1ccccc1)C(F)(F)F (centres unmarked) [Example 146, 4-[2-(4-cyclopropylmethanesulfonylphenyl)acetamido]-N-phenyl-N-(1,1,1-trifluoropropan-2-yl)benzamide]
- IC50: ≤ 10 nM

SMILES: O=C(Cc1ccc(S(=O)(=O)NC2CC2)cc1)Nc1ccc(C(=O)N(CC(F)(F)F)c2ccccc2)cc1 [Example 109, 4-{2-[4-(cyclopropylsulfamoyl)phenyl]acetamido}-N-phenyl-N-(2,2,2-trifluoroethyl) benzamide]
- IC50: ≤ 10 nM

SMILES: CCN(C(=O)c1ccc(NC(=O)Cc2ccc(S(=O)(=O)NC3CC3)cc2)c(C)c1)c1ccccc1 [Example 106, 4-{2-[4-(cyclopropylsuIfamoyl)phenyl]acetamido}-N-ethyl-3-methyl-N-phenylbenzamide]
- IC50: ≤ 1000 nM

SMILES: CN(C(=O)c1ccc(NC(=O)Cc2ccc(S(=O)(=O)CC3CC3)cc2)cc1)c1nccs1 [Example 85, 4-[2-(4-cyclopropylmethanesulfonylphenyl)acetamido]-N-methyl-N-(1,3-thiazol-2-yl)benzamide]
- IC50: ≤ 1000 nM

SMILES: CCCN(C(=O)c1ccc(NC(=O)Cc2ccc(S(=O)(=O)NC3CC3)cc2)cc1)c1cccnc1 [Example 65, 4-{2-[4-(cyclopropylsulfamoyl)phenyl]acetamido}-N-propyl-N-(pyridin-3-yl)benzamide]
- IC50: ≤ 1000 nM

SMILES: CCN(C(=O)c1ccc(NC(=O)Cc2ccc(S(=O)(=O)CC3CC3)cc2)cc1C)c1ccccc1 [Example 162, 4-[2-(4-cyclopropylmethanesulfonylphenyl)acetamido]-N-ethyl-2-methyl-N-phenylbenzamide]
- IC50: ≤ 100 nM

SMILES: CC(C)CN(C)C(=O)c1ccc(NC(=O)Cc2ccc(S(=O)(=O)CC3CC3)cc2)cc1 [Example 8, 4-[2-(4-cyclopropylmethanesulfonylphenyl)acetamido]-N-methyl-N-(2-methylpropyl)benzamide]
- IC50: ≤ 1000 nM

SMILES: CC(C)CN(CC(C)C)C(=O)c1ccc(NC(=O)Cc2ccc(S(=O)(=O)CC3CC3)cc2)cc1 [Example 15, 4-[2-(4-cyclopropylmethanesulfonylphenyl)acetamido]-N,N-bis(2-methylpropyl)benzamide]
- IC50: ≤ 100 nM

SMILES: O=C(Cc1ccc(S(=O)(=O)CC2CC2)cc1)Nc1ccc(C(=O)NCc2ccccc2)cc1 [Example 13, N-benzyl-4-[2-(4-cyclopropylmethanesulfonylphenyl)acetamido]benzamide]
- IC50: ≤ 1000 nM

SMILES: CCN(C(=O)c1ccc(NC(=O)Cc2ccc(S(=O)(=O)CC3CC3)cc2)cc1Cl)c1ccccc1 [Example 100, 2-chloro-4-[2-(4-cyclopropylmethanesulfonylphenyl)acetamido]-N-ethyl-N-phenylbenzamide]
- IC50: ≤ 100 nM

SMILES: CCN(Cc1ccccc1)C(=O)c1ccc(NC(=O)Cc2ccc(S(=O)(=O)CC3CC3)cc2)cc1 [Example 42, N-benzyl-4-[2-(4-cyclopropylmethanesulfonylphenyl)acetamido]-N-ethylbenzamide]
- IC50: ≤ 100 nM

SMILES: O=C(Cc1ccc(S(=O)(=O)CC2CC2)cc1)Nc1ccc(C(=O)N2CCCCC2c2ccccc2)cc1 (centres unmarked) [Example 49, 2-(4-cyclopropylmethanesulfonylphenyl)-N-[4-(2-phenylpiperidine-1-carbonyl)phenyl]acetamide]
- IC50: ≤ 10 nM

SMILES: Cc1cc(NC(=O)Cc2ccc(S(=O)(=O)CC3CC3)cc2)ccc1C(=O)N(C)c1ccccc1C [Example 163, 4-[2-(4-cyclopropylmethanesulfonylphenyl)acetamido]-N,2-dimethyl-N-(2-methylphenyl)benzamide]
- IC50: ≤ 10 nM

SMILES: N#CC(NC(=O)c1ccc(NC(=O)Cc2ccc(S(=O)(=O)CC3CC3)cc2)cc1)c1ccccc1 (centres unmarked) [Example 73, N-[cyano(phenyl)methyl]-4-[2-(4-cyclopropylmethanesulfonylphenyl)acetamido]benzamide]
- IC50: ≤ 1000 nM

SMILES: CCN(C(=O)c1ccc(NC(=O)Cc2ccc(S(=O)(=O)NC3CC3)cc2)cc1)c1nc(C)c(C)s1 [Example 107, 4-{2-[4-(cyclopropylsulfamoyl)phenyl]acetamido}-N-(4-methyl-5-methyl-1,3-thiazol-2-yl)-N-ethyl-benzamide]
- IC50: ≤ 100 nM

SMILES: O=C(Cc1ccc(S(=O)(=O)CC2CC2)cc1)Nc1ccc(C(=O)N2CCCCc3ccccc32)cc1 [Example 63, 2-(4-cyclopropylmethanesulfonylphenyl)-N-[4-(2,3,4,5-tetrahydro-1H-1-benzazepine-1-carbonyl)phenyl]acetamide]
- IC50: ≤ 10 nM

SMILES: COc1ccccc1N(C)C(=O)c1ccc(NC(=O)Cc2ccc(S(=O)(=O)CC3CC3)cc2)cc1Cl [Example 125, 2-chloro-4-[2-(4-cyclopropylmethanesulfonylphenyl)acetamido]-N-(2-methoxyphenyl)-N-methylbenzamide]
- IC50: ≤ 10 nM

SMILES: CN(C(=O)c1ccc(NC(=O)Cc2ccc(S(=O)(=O)CC3CC3)cc2)cc1)c1ccccc1 [Example 3, 4-[2-(4-cyclopropylmethanesulfonylphenyl)acetamido]-N-methyl-N-phenylbenzamide]
- IC50: ≤ 10 nM

SMILES: CCCN(C(=O)c1ccc(NC(=O)Cc2ccc(S(=O)(=O)CC3CC3)cc2)cc1)c1nccs1 [Example 83, 4-[2-(4-cyclopropylmethanesulfonylphenyl)acetamido]-N-propyl-N-(1,3-thiazol-2-yl)benzamide]
- IC50: ≤ 10 nM

SMILES: O=C(Cc1ccc(S(=O)(=O)CC2CC2)cc1)Nc1ccc(C(=O)N(c2ccccc2)C2CCC2)cc1 [Example 141, N-cyclobutyl-4-[2-(4-cyclopropylmethanesulfonylphenyl)acetamido]-N-phenylbenzamide]
- IC50: ≤ 10 nM

SMILES: CCCN(C(=O)c1ccc(NC(=O)Cc2ccc(S(=O)(=O)NC3CC3)cc2)cc1)c1cc(C)nn1C [Example 92, 4-{2-[4-(cyclopropylsuIfamoyl)phenyl]acetamido}-N-(1,3-dimethyl-1H-pyrazol-5-yl)-N-propylbenzamide]
- IC50: ≤ 10 nM

SMILES: CC(C)(C)N(C(=O)c1ccc(NC(=O)Cc2ccc(S(=O)(=O)NC3CC3)cc2)cc1)c1ccccc1 [Example 131, N-tert-butyl-4-{2-[4-(cyclopropylsulfamoyl)phenyl]acetamido}-N-phenylbenzamide]
- IC50: ≤ 10 nM

SMILES: CCN(C(=O)c1ccc(NC(=O)Cc2ccc(S(=O)(=O)NC3CC3)cc2)cc1)c1ccccc1 [Example 43, 4-{2-[4-(cyclopropylsulfamoyl)phenyl]acetamido}-N-ethyl-N-phenylbenzamide]
- IC50: ≤ 10 nM

SMILES: O=C(Cc1ccc(S(=O)(=O)CC2CC2)cc1)Nc1ccc(C(=O)N2CCCCC2CN2CCOCC2)cc1 (centres unmarked) [Example 39, 2-(4-cyclopropylmethanesulfonylphenyl)-N-{4-[2-(morpholin-4-ylmethyl)piperidine-1-carbonyl]phenyl}acetamide]
- IC50: ≤ 1000 nM

SMILES: Cc1ccc(N(C(=O)c2ccc(NC(=O)Cc3ccc(S(=O)(=O)NC4CC4)cc3)cc2)C(C)(C)C2CCCO2)cc1 (centres unmarked) [Example 132, 4-{2-[4-(cyclopropylsulfamoyl)phenyl]acetamido}-N-(4-methylphenyl)-N-[2-(oxolan-2-yl)propan-2-yl]benzamide]
- IC50: ≤ 100 nM
